Experimental findings from US20230391742A1, “SMALL MOLECULE COMPOUND AND USE AND COMPOSITION THEREOF” (SOOCHOW UNIVERSITY, priority 2021, published 2023) are described below.

The target in one assay is T1, NAC1 protein dimer (Homo sapiens, UniProt Q96RE7).
T1 sequence (Q96RE7 1-527): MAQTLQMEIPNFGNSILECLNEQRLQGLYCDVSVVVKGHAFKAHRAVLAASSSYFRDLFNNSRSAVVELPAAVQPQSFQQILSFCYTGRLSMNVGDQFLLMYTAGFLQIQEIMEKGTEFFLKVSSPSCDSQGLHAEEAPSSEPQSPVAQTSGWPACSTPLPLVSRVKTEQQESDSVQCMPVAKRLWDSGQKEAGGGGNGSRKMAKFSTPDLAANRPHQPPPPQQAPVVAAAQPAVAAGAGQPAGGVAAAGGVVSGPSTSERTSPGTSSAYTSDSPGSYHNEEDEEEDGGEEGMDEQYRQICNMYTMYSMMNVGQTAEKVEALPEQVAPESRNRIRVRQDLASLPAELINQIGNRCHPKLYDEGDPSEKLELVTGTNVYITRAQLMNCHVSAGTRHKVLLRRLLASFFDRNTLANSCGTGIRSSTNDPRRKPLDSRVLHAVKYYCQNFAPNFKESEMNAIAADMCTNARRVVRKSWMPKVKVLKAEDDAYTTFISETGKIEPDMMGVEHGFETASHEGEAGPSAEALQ
The experiment in a line: Dimer formation of NAC1 protein detected by immunoprecipitation and immunoblotting. It is filed as biochemical. The conditions noted are these: FIG. 1. The text has this: For the selected NAI-008 (self-synthesized), the dimer formation of the target NAC1 protein by small molecule compounds was detected by immunoprecipitation technology and immunoblotting.
Background: A western blot detects proteins with antibodies after separation by electrophoresis.

For assay [1], the system named is SKOV3 cells. The experiment in a line: Immunoblot of cleaved PARP (apoptosis) in SKOV3 cells. The assay is classed as cell-based, human. The method, then:
The ovarian cancer cell line SKOV3 cells were plated into 24-well plates at a density of 20,000 cells/well, and after 16-24 hours of incubation, NAI-008 was added to a final concentration of 20 μM. After 4 hours, additional cisplatin or doxorubicin was added to a final concentration of 20 μM. After 48 hours, the expression of PARP cleaved by apoptotic protein was detected by immunoblotting.

Assay [2] relates to SKOV3 cells. The experiment in a line: MTT cell growth assay in SKOV3 cells. The assay is classed as cell-based, human. The method, then:
(§1) SKOV3 cell line: purchased from ATCC, an ovarian cancer tumor cell line that positively expresses NAC1.
(§2) The culture method of SKOV3 cell line was as follows: the cells were inoculated in DMEM (InVitrogen) medium containing 10% calf serum, and placed in a CO2 incubator with a volume fraction of 5% at 37° C., cultivated for two weeks.
This embodiment used a conventional MTT method. The specific method included following:
SKOV3 cells were plated overnight in 96-well plates at a density of 3000 cells/well. […] After 48 hours, 10 μl of MTT (5 mg/ml) was added to each well, and the supernatant was discarded after incubation at 37° C. for 4 hours. After dissolving the purple crystal with 150 μl of dimethyl sulfoxide, the plates were placed in a microplate reader (Bio-Rad Company) to detect the absorbance at 570 nm.

Assay [3] concerns SKOV3 cells. The assay can be described thus: Clonal colony formation experiment in SKOV3 cells. The conditions noted are these: NAI-008 20 μM combined with cisplatin or doxorubicin (0-40 μM), SKOV3, FIG. 2B. The assay is classed as cell-based, human. The method, then: as §1, §2
In this example, conventional clonal colony formation experiments were used. The specific method included the following:
SKOV3 cells were treated according to the experimental requirements for 24-48 hours, digested with trypsin, and the cell suspension was repeatedly pipetted to make the cells fully dispersed. The percentage of single cells were above 95%, and counted on a hemocytometer. Based on a concentration of 2000 cells per dish, 2 ml of cell suspension was inoculated into the culture dish, so that the cells were evenly dispersed. Culturing in 37° C., 5% CO2 for 7 to 14 days, with fresh medium from time to time. Observation under an inverted microscope. When macroscopic colonies appeared in the petri dish, the culture was terminated, the medium was discarded, and PBS was used to rinse twice. Crystal violet staining for 20 minutes. The results were analyzed after 2-3 washes with PBS.

For `CC(C)(C)c1ccc(OCC(=O)NCC(=O)c2ccc(OC(=O)c3ccc4c(c3)OCO4)cc2)cc1` [NAI-008], the “formation of NAC1 protein dimer” value at NAC1 protein dimer is recorded as “inhibits the formation of NAC1 protein dimer”. Further, the “expression of apoptotic proteins (cleaved PARP) versus cisplatin or doxorubicin alone” value in the assay on SKOV3 cells [1] (NAI-008 20 μM plus cisplatin or doxorubicin 20 μM, SKOV3, 48 hours, FIG. 2C) is on record as “significantly higher”. Also, the “apoptosis, compound alone” value in the assay with SKOV3 cells [1] (NAI-008 alone, SKOV3) was “did not cause significant apoptosis”. Besides, the “toxic effects on cells, single application” value in the assay on SKOV3 cells [2] (NAI-008 alone, SKOV3, FIGS. 2A and 2B) is listed as “did not cause significant toxic effects on cells”. Besides, the “enhancement of cell growth inhibition by cisplatin and doxorubicin (MTT)” value with SKOV3 cells [2] (NAI-008 at final concentration 20 uM combined with cisplatin or doxorubicin (0-40 μM), SKOV3, 48 hours, FIG. 2A) is “significantly enhances the inhibition of cell growth and proliferation by cisplatin and doxorubicin”. The “enhancement of inhibitory effect of cisplatin on proliferation of SKOV3 (MTT screening)” value in the assay with SKOV3 cells [2] (second-round screening, combination with cisplatin, SKOV3) was “strongly enhances the inhibitory effect of cisplatin on the proliferation of ovarian cancer cell line SKOV3”. Moreover, the “enhancement of cell proliferation inhibition by cisplatin and doxorubicin (colony formation)” value in the assay with SKOV3 cells [3] is “significantly enhances the inhibition of cell growth and proliferation by cisplatin and doxorubicin”.
